{"source": "patent US4172118A", "about": "“Diphenylamine containing therapeutic composition and its applications, particularly in veterinary medicine” (METABIO, priority 1976, dated 1979)", "key": {"liver": {"tested_on": "liver", "assay": "Pentobarbital-induced sleeping test in mice (hepato-toxicity of carbon tetrachloride)", "format": "in vivo", "settings": "CCl4 0.075 ml/kg; protected group with diphenylamine 4 mg/kg; reference group 20 mn", "protocol": "3. […] This test provides a measure of the capability of the liver to metabolize some toxic materials. The principle is as follows: in normal mice, a certain sleeping time is induced by a certain dosage of pentobarbital; in mice which have been administered 48 hours previously a hepato-toxic material, the same pentobarbital dosage induces a longer sleeping time, because the injured liver has greater difficulty in metabolizing pentobarbital; on administration of a supposedly detoxicant material 24 hours after the toxic material, one may examine whether sleeping time is reduced or not and, thus, may quantify the resulting protection.\nThis test is effected using carbon tetrachloride as toxicant at a dosage of 0.075 ml/kg, and diphenylamine as protective material at a dosage of 4 mg/kg."}, "[1]": {"tested_on": "serum glutamic oxalacetic transaminase (S.G.O.T.)", "assay": "Carbon tetrachloride intoxication in ewes, S.G.O.T. level", "format": "in vivo, Ile-de-France ewes", "settings": "CCl4 3600 mg/kg sub-cutaneous", "protocol": "4. Two groups of non-pregnant Ile-de-France ewes, weighing from 46 to 68 kg, were intoxicated with carbon tetrachloride administered sub-cutaneously at a dosage of 3600 mg/kg, as a suspension in vaseline oil.\nThe second group alone was simultaneously administered diphenylamine at a dosage of 100 mg/kg.\nThe criterion used to evaluate the magnitude of the intoxication was the variation of the serum glutamic oxalacetic transaminase (S.G.O.T.) level.\nIn the following Table, the percent increase of said serum levels is given with respect to the level determined prior to the intoxication."}, "[2]": {"assay": "Acute toxicity of bithionol sulfoxide with/without diphenylamine in mice (death rate)", "format": "in vivo, mice (male)", "settings": "mouse, in vivo, 7 days", "protocol": "(§1) The acute toxicity of bithionol sulfoxide was compared with that of a combination of 20 parts bithionol sulfoxide per part diphenylamine.\n(§2) Ten groups of 10 male mice each were used for this test. Five reference groups were administered increasing dosages of bithionol sulfoxide alone. The five other groups were administered the bithionol sulfoxide+diphenylamine combination. The test materials were administered orally.\n(§3) The data relating to the death rate variations in both groups, with respect to the dosages of product used, are set forth in the following Table."}, "myases": {"tested_on": "myases", "settings": "in animals; Merck Index, 8th Ed., p. 387; cited from earlier work"}, "[3]": {"settings": "C.A., Vol. 54 17708g; cited from earlier work"}, "[4]": {"settings": "C.A., Vol. 50-15949d; cited from earlier work"}, "mice [5]": {"tested_on": "mice", "assay": "Acute toxicity of bithionol sulfoxide with/without diphenylamine in mice (death rate)", "format": "in vivo, mice (male)", "settings": "mice, oral; conclusion in words", "protocol": "as §1, §2, §3"}, "mice [6]": {"tested_on": "mice", "assay": "Acute toxicity of hexachlorophene with/without diphenylamine in mice (death rate)", "format": "in vivo, mice (male)", "settings": "mice, oral; conclusion in words", "protocol": "(§4) Acute toxicity tests were conducted in mice. The death rate noted in mice administered hexachlorophene alone was compared with that noted in mice which were administered the same dosages of hexachlorophene, but which had previously been protected by administration of diphenylamine.\n(§5) Ten groups of 10 male mice each were used in such experiments. Five reference groups were given hexachlorophene alone, at increasing dosages. The five other groups were administered diphenylamine at a dosage of 1.5 mg/kg one-half hour prior to administration of the same hexachlorophene dosages as the reference animals. Both compounds were administered orally, using peanut oil as the excipient.\n(§6) The data relating to the death rate variations in both groups, with respect to the dosages of compound used, are set forth in the following Table."}, "sheep": {"tested_on": "sheep", "assay": "Hexachlorophene oral intoxication in sheep with/without diphenylamine (deaths)", "format": "in vivo", "settings": "for Number of sheep killed: of 5 sheep", "protocol": "7. Six groups of 5 sheep each were orally intoxicated with increasing dosages of hexachlorophene (135-142.5-150 mg/kg) with or without diphenylamine."}, "Nematodes": {"tested_on": "Nematodes", "settings": "in dogs; C.A., Vol. 35, 197, 9; cited from earlier work"}, "Limousin ewes": {"tested_on": "Limousin ewes", "assay": "Hexachlorophene intoxication in ewes, clinical signs and weight", "format": "in vivo", "protocol": "5. Two groups of non-pregnant Limousin ewes, weighing from 45 to 52 kg, were intoxicated with hexachlorophene at a dosage of 90 mg/kg, administered orally; whereas the generally used therapeutic dosage is 10 mg/kg.\nThe clinical signs, and particularly the variation of the weight curve, were noted over a 5 day period of time.\nOne of the groups was simultaneously administered 2 mg/kg diphenylamine, by the same route of administration."}, "[7]": {"assay": "Acute toxicity of hexachlorophene with/without diphenylamine in mice (death rate)", "format": "in vivo, mice (male)", "settings": "mouse, in vivo, 7 days, combination: diphenylamine 1.5 mg/kg oral one-half hour prior", "protocol": "as §4, §5, §6"}, "[8]": {"settings": "hexachlorophene 90 mg/kg oral, 5 days, protected group with diphenylamine 2 mg/kg oral"}}, "data": [{"smiles": "ClC(Cl)(Cl)Cl", "note": "[CCl4, carbon tetrachloride]", "values": [{"measurement": "Sleeping time", "setting": "liver", "value": 109, "unit": "mn"}, {"measurement": "Percent S.G.O.T. increase", "setting": "[1]; vs level prior to intoxication, Group II with diphenylamine 100 mg/kg simultaneously", "value": 91, "unit": "%"}]}, {"smiles": "[O-][S+](c1cc(Cl)cc(Cl)c1O)c1cc(Cl)cc(Cl)c1O", "note": "[bithionol sulfoxide]", "values": [{"measurement": "mortality at 168 h", "setting": "[2]; bithionol sulfoxide 450 mg/kg oral, Group II with diphenylamine 22.5 mg/kg", "value": 0, "unit": "%"}, {"measurement": "mortality at 168 h", "setting": "[2]; bithionol sulfoxide 600 mg/kg oral, Group II with diphenylamine 30 mg/kg", "value": 10, "unit": "%"}, {"measurement": "mortality at 168 h", "setting": "[2]; bithionol sulfoxide 800 mg/kg oral, Group II with diphenylamine 40 mg/kg", "value": 20, "unit": "%"}, {"measurement": "mortality at 168 h", "setting": "[2]; bithionol sulfoxide 1066 mg/kg oral, Group II with diphenylamine 53 mg/kg", "value": 40, "unit": "%"}, {"measurement": "mortality at 168 h", "setting": "[2]; bithionol sulfoxide 1420 mg/kg oral, Group II with diphenylamine 71 mg/kg", "value": 30, "unit": "%"}]}, {"smiles": "c1ccc(Nc2ccccc2)cc1", "note": "[diphenylamine]", "values": [{"measurement": "action against certain myases", "setting": "myases", "value": "action against certain myases"}, {"measurement": "anticonvulsant activity", "setting": "[3]", "value": "anticonvulsant activity"}, {"measurement": "antiparasitic activity", "setting": "[4]", "value": "antiparasitic activity"}, {"measurement": "bithionol sulfoxide-induced acute toxicity", "setting": "mice [5]", "value": "reduces the bithionol sulfoxide-induced acute toxicity in mice"}, {"measurement": "hexachlorophene-induced acute toxicity", "setting": "mice [6]", "value": "reduces the hexachlorophene-induced acute toxicity in mice"}, {"measurement": "death rate (in words)", "setting": "sheep; hexachlorophene 135-142.5-150 mg/kg oral, sheep", "value": "significant decrease of the death rate"}, {"measurement": "S.G.O.T. level increase (in words)", "setting": "[1]; diphenylamine 100 mg/kg", "value": "S.G.O.T. level increases in a significantly reduced manner"}, {"measurement": "action against certain Nematodes", "setting": "Nematodes", "value": "against certain Nematodes in dogs"}, {"measurement": "weight stabilization and reduction of the clinical signs", "setting": "Limousin ewes; hexachlorophene 90 mg/kg, diphenylamine 2 mg/kg, oral, conclusion in words", "value": "weight stabilization and the most substantial reduction of the clinical signs"}]}, {"smiles": "Oc1c(Cl)cc(Cl)c(Cl)c1Cc1c(O)c(Cl)cc(Cl)c1Cl", "note": "[hexachlorophene]", "values": [{"measurement": "mortality at 168 h", "setting": "[7]; hexachlorophene 109.6 mg/kg oral", "value": 10, "unit": "%"}, {"measurement": "mortality at 168 h", "setting": "[7]; hexachlorophene 128.2 mg/kg oral", "value": 20, "unit": "%"}, {"measurement": "mortality at 168 h", "setting": "[7]; hexachlorophene 150 mg/kg oral", "value": 20, "unit": "%"}, {"measurement": "mortality at 168 h", "setting": "[7]; hexachlorophene 175.5 mg/kg oral", "value": 40, "unit": "%"}, {"measurement": "mortality at 168 h", "setting": "[7]; hexachlorophene 205.3 mg/kg oral", "value": 60, "unit": "%"}, {"measurement": "Number of sheep killed", "setting": "sheep; hexachlorophene 135 mg/kg oral, diphenylamine 0 or 1.58 mg/kg", "value": 1}, {"measurement": "Number of sheep killed", "setting": "sheep; hexachlorophene 142.5 mg/kg oral, diphenylamine 0 or 1.67 mg/kg", "value": 4}, {"measurement": "Number of sheep killed", "setting": "sheep; hexachlorophene 150 mg/kg oral, diphenylamine 0 or 1.76 mg/kg", "value": 5}, {"measurement": "convulsions", "setting": "Limousin ewes; hexachlorophene 90 mg/kg oral, 5 days, one animal of the group", "value": "in one animal of the group, convulsions were observed"}, {"measurement": "clinical signs", "setting": "Limousin ewes; [8]", "value": "a sustained state of exhaustion was noted in the animals throughout the observation period"}, {"measurement": "loss of weight (in words)", "setting": "Limousin ewes; [8]", "value": "General loss of weight was noted"}, {"measurement": "decrease of the weight within five days", "setting": "Limousin ewes; hexachlorophene 90 mg/kg oral, unprotected group", "value": 14.38, "unit": "%"}, {"measurement": "average weight", "setting": "Limousin ewes; hexachlorophene 90 mg/kg oral, unprotected after five days (48.6 kg before), protected with diphenylamine 2 mg/kg, remained stable", "value": 41.66, "unit": "kg"}]}]}
